Patent US20180185408A1, “ANTIFUNGAL NYLON-3 POLYMERS AND COMBINATION THERAPY USING THEM TO TREAT FUNGAL INFECTIONS” (priority 2016, published 2018)
≈ marks a conversion by molar mass, not a printed value. Where “and” joins values, the source holds several entries; their conditions need not be identical. Equal values may be shown once. Read-outs that look alike come from different tables or passages of the source.

How the values were obtained:
RAW 264.7 macrophages = experiment: In vitro cytotoxicity (CytoTox-ONE, LDH release); details: 12 hours
Cryptococcus neoformans = experiment: Checkerboard microdilution synergy (FIC); details: for FIC / MIC alone / MIC combo: AMB and MM:TM
Cryptococcus amylolentus = experiment: MIC100 against yeast (CLSI M27-A3); format: cell-based
C. auris = experiment: MIC100 against yeast (CLSI M27-A3); format: cell-based, Candida auris; details: Candidozyma auris
C. krusei = experiment: MIC100 against yeast (CLSI M27-A3); format: cell-based, Candida krusei
Aspergillus species = experiment: MIC100 against 18 species of the Aspergillus genus; format: cell-based, Aspergillus spp.
Excerpt: We assessed the antifungal activity of MM-TM, DM-TM, and NM against 18 different species within the genus Aspergillus.

Aspergillus fumigatus = experiment: microbe, parasite or virus in culture
Trichophyton rubrum = experiment: MIC100 against dermatophytes (modified CLSI M38-A); format: cell-based; details: ATCC28188; Trichophyton rubrum isolate ATCC 28188
Protocol: (§1) The final group of fungi tested for sensitivity to nylon-3 polymers were dermatophytes. In contrast to the other filamentous fungi tested, three of these isolates were evaluated following a modified version of the CLSI M38-A methodology (using hyphal fragments in liquid culture, because of difficulties in obtaining conidia). […] Mixed efficacy of the nylon-3 polymers was observed across the four species of dermatophytes tested. […] The activity against P. destructans, the causative agent of White Nose syndrome in bats, and just one of many emerging fungal pathogens threatening wildlife is encouraging because there are few options at present for preventing the spread of this devastating pathogen. The facility with which nylon-3 polymers can be modified could provide opportunities for the development of topical agents with high specificity for particular fungi.

Trichophyton tonsurans = experiment: MIC100 against dermatophytes (modified CLSI M38-A); format: cell-based; details: CBS112818; Trichophyton tonsurans isolate CBS 112818
Protocol: as §1

Microsporum canis = experiment: MIC100 against dermatophytes (modified CLSI M38-A); format: cell-based; details: Microsporum canis isolate UW10
Protocol: as §1

Aspergillus spp. = experiment: microbe, parasite or virus in culture
[1] = tested on: Pseudogymnoascus destructans; experiment: MIC100 against dermatophytes (conidia, 12°C, seven days); format: cell-based; details: Pseudogymnoascus destructans isolate ATC MYA-4855
Protocol: as §1

Aspergillus terreus = experiment: microbe, parasite or virus in culture
[2] = H99, […]10^5 cells/mL, 30°C, OD600 48 h, Avg.
[3] = H99, […]10^5 cells/mL, 30°C, OD600 48 h, trial 1
[4] = H99, […]10^5 cells/mL, 30°C, OD600 48 h, trial 2
[5] = MM:TM (40:60) with Amp B, isolate H99 (Amp B Sensitive), […]10^5 cells/mL, 30° C.
[6] = NM20 with Amp B, isolate H99, […] 10^5 cells/mL
[7] = Table 41, MM:TM with Amp B, isolate H99, […] 10^5 cells/mL

C[C@@H]1[C@H](O)[C@@H](C)/C=C/C=C/C=C/C=C/C=C/C=C/C=C/[C@H](O[C@@H]2O[C@H](C)[C@@H](O)[C@H](N)[C@@H]2O)C[C@@H]2O[C@](O)(C[C@@H](O)C[C@@H](O)[C@H](O)CC[C@@H](O)C[C@@H](O)CC(=O)O[C@H]1C)C[C@H](O)[C@H]2C(=O)O [AMB, amphotericin B]
cell death at the highest concentration tested (RAW 264.7 macrophages): less than 50% | concentration causing 10% cell death (IC10) (RAW 264.7 macrophages): 108 µM | decrease of the MIC of AMB in combination with MM:TM (Cryptococcus neoformans; H99): > 10 fold | MIC Combined (Cryptococcus neoformans; H99, AMB and MM:TM in combination, […]10^5 cells/mL, 30°C, OD600 48 h): 0.16 µM | FIC (Cryptococcus neoformans; H99, Avg.): 0.05 | MIC alone (Cryptococcus neoformans; [2]): 3.1 µg/mL | MIC combo (Cryptococcus neoformans; [2]): 0.15 µg/mL | MIC alone (Cryptococcus neoformans; [3]): 3.1 µg/mL | MIC combo (Cryptococcus neoformans; [3]): 0.2 µg/mL | MIC alone (Cryptococcus neoformans; [4]): 3.1 µg/mL | MIC combo (Cryptococcus neoformans; [4]): 0.1 µg/mL | MIC alone (Cryptococcus neoformans; H99, single agent, […]10^5 cells/mL, 30°C, OD600 48 h): 3.4 µM | FIC (Cryptococcus neoformans; H99, trial 1): 0.06 | FIC (Cryptococcus neoformans; H99, trial 2): 0.03 | MIC AMB alone (Cryptococcus neoformans; H99, AMB as single agent, OD600, 48 h, 30° C.): 3.4 µM | MIC AMB combination (Cryptococcus neoformans; H99, AMB in combination with MM:TM, OD600, 48 h, 30° C.): 0.1 µM and 0.16 µM and 0.2 µM | FICAMB (Cryptococcus neoformans; H99, AMB with MM:TM): 0.03 and 0.05 and 0.06 | FICAmp B (Cryptococcus neoformans; [5]): 0.09 | MIC Amp B alone (Cryptococcus neoformans; [5]): 1.6 µg/mL | MIC Amp B in combination (Cryptococcus neoformans; [5]): 0.15 µg/mL | MIC AMB alone (Cryptococcus neoformans; [6]): 3.1 µg/mL | MIC AMB in combination (Cryptococcus neoformans; [6]): 0.1 µg/mL | MIC Amp B alone (Cryptococcus neoformans; [7]): 1.6 µg/mL | MIC Amp B in combination (Cryptococcus neoformans; [7]): 0.15 µg/mL

OC(Cn1cncn1)(Cn1cncn1)c1ccc(F)cc1F [FLC, fluconazole]
MIC50 (Cryptococcus amylolentus; CBS6039, Cryptococcus amolyentous CBS 6039): 16 µg/mL (≈ 52.2 µM) | MIC50 (Cryptococcus amylolentus; CBS6273, Cryptococcus amolyentous CBS 6273): 16 µg/mL (≈ 52.2 µM) | MIC50 (C. auris; Candida auris B11220): 4 µg/mL (≈ 13.1 µM) | MIC50 (C. auris; Candida auris C54039, Resistance AmB): 16 µg/mL (≈ 52.2 µM) | polymer efficacy against budding yeasts, 50% (C. krusei; C. krusei QC, CLSI QC isolate for susceptibility testing): 32 | MIC50 (C. krusei; Pichia kudriavzevii, Candida krusei QC): 32 µg/mL (≈ 104 µM)

CCC(C)n1ncn(-c2ccc(N3CCN(c4ccc(OCC5COC(Cn6cncn6)(c6ccc(Cl)cc6Cl)O5)cc4)CC3)cc2)c1=O (stereo not drawn) [Itraconazole, itraconazole]
MIC (Aspergillus species; Aspergillus aculeatus isolate CBS 172.66): < 1 µg/mL | MIC (Aspergillus species; Aspergillus brasiliensis isolate CBS 101740): 64 µg/mL (≈ 90.7 µM) | MIC (Aspergillus species; Aspergillus carbonarius isolate DT0115-B6): < 1 µg/mL | MIC (Aspergillus species; Aspergillus clavatus isolate CBS 513.65): 64 µg/mL (≈ 90.7 µM) | MIC (Aspergillus species; Aspergillus fumigatus isolate CEA10): < 1 µg/mL | MIC (Aspergillus species; Aspergillus glaucus isolate CBS 516.65): 2 µg/mL (≈ 2.83 µM) | MIC (Aspergillus species; Aspergillus nidulans isolate FGSCA4): < 1 µg/mL | MIC (Aspergillus species; Aspergillus niger isolate CBS 113.46): < 1 µg/mL | MIC (Aspergillus species; Aspergillus oryzae isolate Rib40): 1 µg/mL (≈ 1.42 µM) | MIC (Aspergillus species; Aspergillus parasiticus isolate Su-1): < 1 µg/mL | MIC (Aspergillus species; Aspergillus sydowii isolate CBS 593.65): 2 µg/mL (≈ 2.83 µM) | MIC (Aspergillus species; Aspergillus terreus isolate NCCB IH2626): < 1 µg/mL | MIC (Aspergillus species; Aspergillus versicolor isolate CBS 795.97): 1 µg/mL (≈ 1.42 µM) | MIC (Aspergillus species; Aspergillus wentii isolate DT0136-E9): < 1 µg/mL | MIC (Aspergillus species; Aspergillus zonatus isolate CBS 506.65): < 1 µg/mL | MIC (Aspergillus species; Neosartorya fischeri isolate CBS 544.65): > 8 µg/mL | MIC (Aspergillus fumigatus; 48 h, A. fumigatus AF293, visually, 1 × 10^5 cells/mL, 35° C.): 1 µg/mL and 1.4 µM | MIC (Aspergillus fumigatus; 48 h, A. fumigatus CEA10, visually, 1 × 10^5 cells/mL, 35° C.): > 1 µg/mL and > 1.4 µM | MIC (Aspergillus fumigatus; 48 h, A. fumigatus F11628, visually, 1 × 10^5 cells/mL, 35° C.): 48 µg/mL and 68.5 µM | MIC (Aspergillus fumigatus; 48 h, A. fumigatus F16216, visually, 1 × 10^5 cells/mL, 35° C.): 32 µg/mL and 45.3 µM | MIC (Aspergillus fumigatus; A. fumigatus AF293): 1.4 µM (≈ 0.988 µg/mL) | MIC (Aspergillus fumigatus; A. fumigatus CEA10): > 1.4 µM | MIC (Aspergillus fumigatus; A. fumigatus F11628): 68 µM (≈ 48 µg/mL) | MIC (Aspergillus fumigatus; A. fumigatus F16216): 45.3 µM (≈ 32 µg/mL) | MIC (Aspergillus fumigatus; azole resistant strain F11628): > 45 µM | MIC (Aspergillus fumigatus; strain F16216): 45.3 µM (≈ 32 µg/mL) | MIC (Trichophyton rubrum): 1 µg/mL (≈ 1.42 µM) | MIC (Trichophyton tonsurans): 0.13 µg/mL (≈ 0.184 µM) | MIC (Microsporum canis): 1 µg/mL (≈ 1.42 µM) | MIC (Aspergillus spp.): ~1 µM (≈ 0.706 µg/mL) | MIC [1]: 0.13 µg/mL (≈ 0.184 µM) | MIC (Aspergillus terreus): 1.4 µM (≈ 0.988 µg/mL) | MIC (Aspergillus terreus; 48 h): 1 µg/mL and 1.4 µM
